Data published in patent publication US9371393B2, “Class I anti-CEA antibodies and uses thereof” (Immunomedics, Inc., priority 2009, dated 2016).

T1: CEA (Homo sapiens, UniProt P06731)
T1 sequence (P06731 35-676): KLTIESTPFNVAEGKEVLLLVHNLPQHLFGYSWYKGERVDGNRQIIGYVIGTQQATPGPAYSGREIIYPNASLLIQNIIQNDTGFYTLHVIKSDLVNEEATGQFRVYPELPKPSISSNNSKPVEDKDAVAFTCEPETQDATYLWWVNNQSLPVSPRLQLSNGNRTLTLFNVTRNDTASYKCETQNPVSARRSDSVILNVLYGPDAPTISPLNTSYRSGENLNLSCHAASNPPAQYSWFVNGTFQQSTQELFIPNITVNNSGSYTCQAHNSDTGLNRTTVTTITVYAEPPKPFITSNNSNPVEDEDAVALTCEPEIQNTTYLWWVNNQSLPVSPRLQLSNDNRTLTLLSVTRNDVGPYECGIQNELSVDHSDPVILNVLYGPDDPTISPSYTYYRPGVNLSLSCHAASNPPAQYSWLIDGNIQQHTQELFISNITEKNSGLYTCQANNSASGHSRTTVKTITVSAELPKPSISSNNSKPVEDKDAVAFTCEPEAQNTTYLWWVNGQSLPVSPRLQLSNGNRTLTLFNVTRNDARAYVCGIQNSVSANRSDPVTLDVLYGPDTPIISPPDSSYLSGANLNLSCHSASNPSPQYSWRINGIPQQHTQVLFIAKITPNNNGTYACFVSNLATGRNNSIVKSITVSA

B1: cMN-15: murine MN-15 variable regions (SEQ ID NO:9, SEQ ID NO:10) attached to human IgG1 constant regions (antibody, listed as Mus sp., V domains shown)
VL: DIQLTQSPAIMSASPGEKVTMTCSASSRVSYIHWYQQKSGTSPKRWIYGTSTLASGVPARFSGSGSGTSYSLTISSMEAEDAATYYCQQWSYNPPTFGAGTKLELKR
VH: EVRLVESGGGLVQGPGSLRLSCAASGFALTDYYMSWVRQSPGKTLEWLGFIANKANGHTTDYSPSVKGRFTISRDNSQTILYLQMNTLRTEDSATYYCARDMGIRWNFDVWGQGTTVTVSS
modifications: human IgG1 constant regions

Assays:
[1] = test system: SUM1315 breast cancer model; assay: hMN-15 pretreatment and CPT-11 in SUM1315 breast cancer model; assay type: in vivo; settings: single agent; dosages as in Example 5
Protocol: The effects of pre-treatment with naked hMN-15 CEA Mab given 3 days prior to CPT-11 treatment is examined in a SUM1315 breast cancer model (Kuperwasser et al., Cancer Res. 2005, 65:6130-38). CPT-11 alone, hMN-15 alone, and combination therapy of hMN-15+CPT-11 where the hMN-15 is administered 3 days prior to the CPT-11 are compared. Dosages are as indicated in Example 5. hMN-15 alone increases median survival time by 21% under these conditions. CPT 11 alone increases survival by 76%. By contrast, the combination therapy where hMN-15 is administered 3 days prior to CPT-11 produces a median survival time increase of an additional 58% above CPT-11 alone. […] The synergistic effect of hMN-15 antibody with CPT-11 therapy is surprising.

[2] = test system: RII and RI isoforms of PKA; settings: Gold 2006; Stokka et al. 2006; cited from earlier work
CEA = molecular target: T1, CEA; assay: Competitive CEA binding against HRP-labeled murine MN-15; settings: competition with HRP-labeled murine MN-15
Text: To make a chimeric MN-15 antibody, the murine MN-15 variable region sequences were attached to human IgG1 constant region sequences, as described in Leung et al., Hybridoma 13:469 (1994). The sequences of the murine MN-15 VK (SEQ ID NO:9) and MN-15 VH (SEQ ID NO:10) used to construct the chimeric MN-15 (cMN-15) are shown in FIG. 2 and FIG. 3.

Molecule | selectivity / affinity for RII versus RI isoform of PKA [2] | further results
CCc1c2c(nc3ccc(OC(=O)N4CCC(N5CCCCC5)CC4)cc13)-c1cc3c(c(=O)n1C2)COC(=O)[C@]3(O)CC [CPT-11, irinotecan, reference compound] |  | increase of median survival time [1]: 76%
DLIEEAASRIVDAVIEQVKAAGAY [Ht-31] | greater affinity for the RII isoform of PKA | 
FEELAWKIAKMIWSDVFQQC [PV-38] | higher affinity for RI | 
LEQYANQLADQIIKEATE [RIAD] | higher affinity for RI | 
QIEYVAKQIVDYAIHQA [SuperAKAP-IS] | five order of magnitude higher selectivity for the RII isoform of PKA compared with the RI isoform | 
B1 |  | affinity for CEA compared with parent murine MN-15 (CEA): virtually identical; dissociation constant (CEA): nanomolar range
